These results are taken from patent US20250127709A1, “COSMETIC COMPOSITION CONTAINING IRIS GERMANICA ROOT-DERIVED EXOSOMES AS AN ACTIVE INGREDIENT” (PP PRODUITS PRESTIGES SA, priority 2021, published 2025).

Assay type in all cases: cell-based, human
The test system of one experiment is MMP-1. Put plainly: Wrinkle improvement efficacy: MMP-1 mRNA expression in UVB-irradiated HDFa. Particulars: UVB 20 mJ/cm^2, treated with 50 μM, positive control. As for the experimental part: In order to confirm an anti-aging efficacy of the Iris germanica rhizome-derived exosomes, they were evaluated for their effect on MMP-1 expression by comparing them with the Iris germanica rhizome extracts for each solvent. After inoculating a human dermal fibroblast (HDFa), they were cultured in a culture medium of Fibroblast Basal Medium (Medium 106) containing 100 IU/mL of penicillin and 100 μg/mL of streptomycin under 5% CO2 at 37° C. for 24 hours. After the culture, the medium was discarded, and the Iris germanica rhizome-derived exosomes (stock concentration 9.90×10^9 particles/mL) and the Iris germanica rhizome extracts for each solvent (stock concentration 100 mg/mL) were treated at each concentration and cultured for 48 hours. In order to induce cell damage, the remaining cultured cell groups except for the non-UVB irradiation group were removed from the medium, and then the medium was irradiated with 20 mJ/cm^2 of UVB and replaced with a new medium, which was then cultured for 24 hours. After 24 hours, RNA was extracted from the cultured cells using a TransZol reagent, followed by performing RT-PCR (real-time genetic polymerase chain reaction) to measure an amount of mRNA change in MMP-1, which is related to skin aging and wrinkle formation. A product generated by the PCR was identified with a Gel Documentation system by performing electrophoresis on a 1% agarose gel. […]

Another experiment concerns COL1A1. Put plainly: Wrinkle improvement efficacy: COL1A1 mRNA expression in HDFa. Particulars: treated with 50 μM, positive control. As to the method:
In order to confirm an anti-aging efficacy of the Iris germanica rhizome-derived exosomes, they were evaluated for their effect on COL1A1 expression by comparing them with the Iris germanica rhizome extracts for each solvent. After inoculating a human dermal fibroblast (HDFa), they were cultured in a culture medium of Fibroblast Basal Medium (Medium 106) containing 100 IU/mL of penicillin and 100 μg/mL of streptomycin under 5% CO2 at 37° C. for 24 hours. After culturing, the medium was discarded, and the Iris germanica rhizome-derived exosomes (stock concentration 9.90×10^9 particles/mL) and the Iris germanica rhizome extracts for each solvent (stock concentration 100 mg/mL) were treated at each concentration and cultured for 48 hours. After culturing, RNA was extracted from the cultured cells using a TransZol reagent, followed by performing RT-PCR (real-time genetic polymerase chain reaction) to measure an amount of mRNA change in collagen, which maintains a skin connective tissue. A product generated by the PCR was identified with a Gel Documentation system by performing electrophoresis on a 1% agarose gel. In this case, a negative control group was treated with PBS, and a positive control group was treated with 50 μM of retinyl palmitate. […]

In a further experiment the test system is AQP3 (Aquaporin 3). Put plainly: Moisturizing efficacy: AQP3 mRNA expression by RT-PCR in HEKa. Conditions: treated with 0.01%, positive control. As to the method: In order to confirm a moisturizing efficacy of the Iris germanica rhizome-derived exosomes, they were evaluated for their effect on AQP3 expression by comparing them with the Iris germanica rhizome extracts for each solvent. After inoculating a human epidermal keratinocyte (HEKa), they were cultured in a culture medium of Dulbecco Modified Eagle Medium (DMEM) supplemented with 100 IU/mL of penicillin and 100 μg/mL of streptomycin under 5% CO2 at 37° C. for 24 hours. After the culture, the medium was discarded, and the iris germanica rhizome-derived exosomes (stock concentration 9.90×10^9 particles/mL) and the iris germanica rhizome extracts for each solvent (stock concentration 100 mg/mL) were treated at each concentration and cultured for 48 hours. Thereafter, RNA was extracted from the cultured cells using a TransZol reagent, followed by performing RT-PCR (real-time genetic polymerase chain reaction) to measure an amount of mRNA change in AQP3 (Aquaporin 3), which is a moisturizing factor involved in moisture movement in the cells and is a protein that plays an important role in skin moisturization. A product generated by the PCR was identified with a Gel Documentation system by performing electrophoresis on a 1% agarose gel. In this case, a negative control group was treated with PBS, and a positive control group was treated with 0.01% of a hyaluronic acid. […]

Turning to `CCCCCCCCCCCCCCCC(=O)OC/C=C(C)/C=C/C=C(C)/C=C/C1=C(C)CCCC1(C)C` [retinyl palmitate], in the experiment on MMP-1, the MMP-1 expression rate was 72.81%. This compound had a COL1A1 expression rate with COL1A1 of 173.93%.

Take hyaluronic acid: the AQP3 expression rate with AQP3 (Aquaporin 3) worked out at 155.69%.
